Experimental findings from patent publication US20090221653A1, “7-(2-amino-1-hydroxy-ethyl)-4-hydroxybenzothiazol-2(3H)-one-derivatives as beta2 adrenoreceptor agonists” (AstraZeneca AB, priority 2005, published 2009) are described below.

One assay concerns the target T1, Adrenergic β2 (Homo sapiens, UniProt P07550).
T1 construct: endogenous in cells; host or cells: H292 cells
Kind of assay: Alternative Adrenergic β2 Mediated cAMP Production in H292 cells (AlphaScreen cAMP detection). Format: cell-based. Conditions: for EC50: cAMP, test compounds incubated 60 minutes, 300 μM rolipram, read-out: β2 pEC50 (converted); for β2 Int Act: fraction relative to the maximum activity determined for formoterol, 60 minutes incubation. How it is done:
H292 cells were grown in 225 cm2 flasks incubator at 37° C., 5% CO2 in RPMI medium containing, 10% (v/v) FBS (foetal bovine serum) and 2 mM L-glutamine.
Adherent H292 cells were removed from tissue culture flasks by treatment with Accutase™ cell detachment solution for 15 minutes. Flasks were incubated for 15 minutes in a humidified incubator at 37° C., 5% CO2. Detached cells were re-suspended in RPMI media (containing 10% (v/v) FBS and 2 mM L-glutamine) at 0.05×10^6 cells per mL. 5000 cells in 100 μL were added to each well of a tissue-culture-treated 96-well plate and the cells incubated overnight in a humidified incubator at 37° C., 5% CO2. The culture media was removed and cells were washed twice with 100 μL assay buffer and replaced with 50 μL assay buffer (HBSS solution containing 10 mM HEPES pH7.4 and 5 mM glucose). […] Cells were incubated with rolipram for 10 minutes after which time test compounds were added and the cells were incubated for 60 minutes at room temperature. […] The reaction was stopped by removing supernatants, washing once with 100 μL assay buffer and replacing with 50 μL lysis buffer. The cell monolayer was frozen at −80° C. for 30 minutes (or overnight).
The concentration of cAMP (cyclic adenosine monophosphate) in the cell lysate was determined using AlphaScreen™ methodology. The frozen cell plate was thawed for 20 minutes on a plate shaker then 10 μL of the cell lysate was transferred to a 96-well white plate. 40 μL of mixed AlphaScreen™ detection beads pre-incubated with biotinylated cAMP, was added to each well and the plate incubated at room temperature for 10 hours in the dark. The AlphaScreen™ signal was measured using an EnVision spectrophotometer (Perkin-Elmer Inc.) with the recommended manufacturer's settings. cAMP concentrations were determined by reference to a calibration curve determined in the same experiment using standard cAMP concentrations. Concentration response curves for agonists were constructed and data was fitted to a four parameter logistic equation to determine both the pEC50 and Intrinsic Activity.

For assay [1], the target named is T2, recombinant human α1D receptor (Homo sapiens, UniProt P25100).
T2 construct: expressed in transfected cells; host or cells: HEK293
T2 sequence (P25100 1-572): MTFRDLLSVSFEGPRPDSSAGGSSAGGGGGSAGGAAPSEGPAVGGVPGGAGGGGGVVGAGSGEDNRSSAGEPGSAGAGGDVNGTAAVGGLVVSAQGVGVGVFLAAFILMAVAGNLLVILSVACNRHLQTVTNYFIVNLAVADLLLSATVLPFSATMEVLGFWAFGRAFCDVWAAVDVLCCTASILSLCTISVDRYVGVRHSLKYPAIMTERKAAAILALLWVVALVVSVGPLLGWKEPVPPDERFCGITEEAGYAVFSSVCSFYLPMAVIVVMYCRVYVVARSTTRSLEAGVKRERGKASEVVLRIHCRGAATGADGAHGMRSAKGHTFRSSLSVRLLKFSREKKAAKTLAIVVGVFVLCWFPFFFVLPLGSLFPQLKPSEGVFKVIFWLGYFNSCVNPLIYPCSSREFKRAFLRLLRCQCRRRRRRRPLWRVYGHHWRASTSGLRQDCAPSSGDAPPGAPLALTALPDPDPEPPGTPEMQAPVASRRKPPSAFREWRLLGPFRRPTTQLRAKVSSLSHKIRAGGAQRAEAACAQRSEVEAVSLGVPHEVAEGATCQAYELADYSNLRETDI
Briefly: Adrenergic α1D selectivity assay, inhibition of [3H]-prazosin binding. The note with it: HEK293 membranes, [3H]-prazosin 0.3 nM; read-out: α1 bind pIC50 (converted). The protocol: Membranes were prepared from human embryonic kidney 293 (HEK293) cells expressing recombinant human α1D receptor. These were diluted in Assay Buffer (50 mM HEPES, 1 mM EDTA, 0.1% gelatin, pH 7.4) to provide a final concentration of membranes that gave a clear window between maximum and minimum specific binding.
(§1) Assays were performed in U-bottomed 96-well polypropylene plates. 10 μL [^3H]-prazosin (0.3 nM final concentration) and 10 μL of test compound (10× final concentration) were added to each test well. For each assay plate 8 replicates were obtained for [^3H]-prazosin binding in the presence of 10 μL vehicle (10% (v/v) DMSO in Assay Buffer; defining maximum binding) or 10 μL BMY7378 (10 μM final concentration; defining non-specific binding (NSB)). Membranes were then added to achieve a final volume of 100 μL. The plates were incubated for 2 hours at room temperature and then filtered onto PEI coated GF/B filter plates, pre-soaked for 1 hour in Assay Buffer, using a 96-well plate Tomtec cell harvester. Five washes with 250 μL wash buffer (50 mM HEPES, 1 mM EDTA, pH 7.4) were performed at 4° C. to remove unbound radioactivity. The plates were dried then sealed from underneath using Packard plate sealers and MicroScint-O (50 μL) was added to each well. The plates were sealed (TopSeal A) and filter-bound radioactivity was measured with a scintillation counter (TopCount, Packard BioScience) using a 3-minute counting protocol.
(§2) Total specific binding (B0) was determined by subtracting the mean NSB from the mean maximum binding. NSB values were also subtracted from values from all other wells.

In assay [2] the target is T3, recombinant human adrenergic beta 1 receptors (Homo sapiens, UniProt P08588).
T3 construct: purchased Euroscreen
Briefly: Adrenergic β1 selectivity assay, inhibition of [125I]-Iodocyanopindolol binding. The protocol:
Membranes containing recombinant human adrenergic beta 1 receptors were obtained from Euroscreen. These were diluted in Assay Buffer (50 mM HEPES, 1 mM EDTA, 120 mM NaCl, 0.1% gelatin, pH 7.4) to provide a final concentration of membranes that gave a clear window between maximum and minimum specific binding.
as §1, with “10 μL [^3H]-prazosin (0.3 nM final concentration) and 10 μL of test compound (10× final concentration) were added to each test well. For each assay plate 8 replicates were obtained for [^3H]-prazosin binding in the presence of 10 μL vehicle (10% (v/v) DMSO in Assay Buffer; defining maximum binding) or 10 μL BMY7378 (10 μM final concentration; defining non-specific binding (NSB)).” left out, “EDTA, 120 mM NaCl,” for “EDTA,”
as §2

For assay [3], the target named is T4, recombinant human Dopamine Subtype D2s receptors (Homo sapiens, UniProt P14416).
T4 construct: purchased Perkin Elmer
Kind of assay: Dopamine D2 selectivity assay, inhibition of [3H]-spiperone binding. Conditions: membranes, [3H]-spiperone 0.16 nM; read-out: D2 bind pIC50 (converted). The protocol:
Membranes containing recombinant human Dopamine Subtype D2s receptors were obtained from Perkin Elmer. These were diluted in Assay Buffer ([…] HEPES, 1 mM EDTA, 120 mM NaCl, 0.1% gelatin, pH 7.4) to provide a final concentration of membranes that gave a clear window between maximum and minimum specific binding.
Assays were performed in U-bottomed 96-well polypropylene plates. […] For each assay plate 8 replicates were obtained for [^3H]-spiperone binding in the presence of 30 μL vehicle (10% (v/v) DMSO in Assay Buffer; defining maximum binding) or 30 μL Haloperidol (10 μM final concentration; defining non-specific binding (NSB)). Membranes were then added to achieve a final volume of 300 μL. The plates were incubated for 2 hours at room temperature and then filtered onto PEI coated GF/B filter plates, pre-soaked for 1 hour in Assay Buffer, using a 96-well plate Tomtec cell harvester. Five washes with 250 μL wash buffer (50 mM HEPES, 1 mM EDTA, 120 mM NaCl, pH 7.4) were performed at 4° C. to remove unbound radioactivity. The plates were dried then sealed from underneath using Packard plate sealers and MicroScint-O (50 μL) was added to each well. The plates were sealed (TopSeal A) and filter-bound radioactivity was measured with a scintillation counter (TopCount, Packard BioScience) using a 3-minute counting protocol. Total specific binding (B0) was determined by subtracting the mean NSB from the mean maximum binding. NSB values were also subtracted from values from all other wells.

A further assay has as its target T5, β2 receptor (Homo sapiens, UniProt P07550).
T5 construct: endogenous in cells; host or cells: H292 cells
Briefly: Adrenergic β2 mediated cAMP production in H292 cells (AlphaScreen cAMP detection). In kind it is cell-based. The protocol: H292 cells were grown in RPMI (Roswell Park Memorial Institute) medium containing, 10% (v/v) FBS (foetal bovine serum) and 2 mM L-glutamine. Cells were grown in 225 cm2 flasks containing 25 mL media in a humidified incubator at 37° C., 5% CO2. Cells were harvested from the flask and passaged at a 1 in 10 dilution once per week.
The media from flasks containing H292 cells was removed, rinsed with 10 mL PBS (phosphate buffered saline) and replaced with 10 mL Accutase™ cell detachment solution. Flasks were incubated for 15 minutes in a humidified incubator at 37° C., 5% CO2. The cell suspension was counted and the cells re-suspended in RPMI media (containing 10% (v/v) FBS and 2 mM L-glutamine) at 0.05×10^6 cells per mL. 5000 cells in 100 μL were added to each well of a tissue-culture-treated 96-well plate and the cells incubated overnight in a humidified incubator at 37° C., 5% CO2. The culture media was removed, washed twice with 100 μL assay buffer and replaced with 50 μL assay buffer. Cells were rested at room temperature for 20 minutes after which time 25 μL of rolipram (1.2 mM made up in assay buffer containing 2.4% (v/v) dimethylsulphoxide) was added. Cells were incubated with rolipram for 10 minutes after which time test compounds (made up as ×4 concentrated stocks in assay buffer containing 4% (v/v) dimethylsulphoxide) were added and the cells were incubated for 10 minutes at room temperature. Final rolipram concentration in the assay was 300 μM and final vehicle concentration was 1.6% (v/v) dimethylsulphoxide. The reaction was stopped by removing supernatants, washing once with 100 μL assay buffer and replacing with 50 μL lysis buffer. The cell monolayer was frozen at −80° C. for 30 minutes (or overnight).
The concentration of cAMP (cyclic adenosine monophosphate) in the cell lysate was determined using the AlphaScreen™ methodology. The frozen cell plate was thawed for 20 minutes on a plate shaker then 10 μL of the cell lysate was transferred to a 96-well white plate. 40 μL of mixed AlphaScreen™ detection beads (containing equal volumes of donor beads (pre-incubated with biotinylated cAMP in the dark for 30 minutes) and acceptor beads), was added to each well and the plate incubated at room temperature for 10 hours in the dark. The AlphaScreen™ signal was measured using an EnVision spectrophotometer (Perkin-Elmer Inc.) with the recommended manufacturer's settings. cAMP concentrations were determined by reference to a calibration curve determined in the same experiment using standard cAMP concentrations (made up in lysis buffer in a 96-well tissue-culture-treated plate and frozen/thawed alongside the test samples) and detected using the same protocol. Concentration response curves for agonists were constructed to determine both the pEC50 and Intrinsic Activity.
A general note: cAMP levels reflect the balance of adenylyl cyclase and phosphodiesterase activity.

The mark [4] stands for this setting: membranes, [125I]-Iodocyanopindolol, read-out: β1 bind pIC50 (converted).

Counter-ions that a name gives are not always drawn. Like-named read-outs stand apart in the source and are kept apart here.

T1 sequence (P07550 whole entry): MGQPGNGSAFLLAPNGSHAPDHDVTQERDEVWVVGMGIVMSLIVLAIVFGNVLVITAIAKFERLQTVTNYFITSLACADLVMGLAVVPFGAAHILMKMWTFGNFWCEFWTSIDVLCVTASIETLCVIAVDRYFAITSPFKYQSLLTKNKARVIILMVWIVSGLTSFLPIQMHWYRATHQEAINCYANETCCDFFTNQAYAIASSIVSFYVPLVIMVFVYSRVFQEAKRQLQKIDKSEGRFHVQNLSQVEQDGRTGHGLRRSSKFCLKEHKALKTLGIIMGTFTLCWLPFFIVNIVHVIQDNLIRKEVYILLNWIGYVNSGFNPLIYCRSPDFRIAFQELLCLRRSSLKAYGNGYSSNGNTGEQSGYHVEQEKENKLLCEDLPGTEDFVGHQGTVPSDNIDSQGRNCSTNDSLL
T3 sequence (P08588 whole entry): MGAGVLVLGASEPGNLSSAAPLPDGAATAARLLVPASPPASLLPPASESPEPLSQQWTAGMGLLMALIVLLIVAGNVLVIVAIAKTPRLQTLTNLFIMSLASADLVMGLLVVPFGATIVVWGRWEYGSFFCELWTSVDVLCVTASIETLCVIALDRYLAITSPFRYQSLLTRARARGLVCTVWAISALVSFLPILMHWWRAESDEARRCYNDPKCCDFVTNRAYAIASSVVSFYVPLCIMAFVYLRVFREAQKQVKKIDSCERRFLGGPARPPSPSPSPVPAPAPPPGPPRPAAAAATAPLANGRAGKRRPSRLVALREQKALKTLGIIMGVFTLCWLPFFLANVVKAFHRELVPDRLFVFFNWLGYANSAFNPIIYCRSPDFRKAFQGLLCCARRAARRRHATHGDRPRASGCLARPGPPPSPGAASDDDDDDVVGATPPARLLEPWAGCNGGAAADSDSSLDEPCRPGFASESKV
T4 sequence (P14416 1-414 isoform P14416-2): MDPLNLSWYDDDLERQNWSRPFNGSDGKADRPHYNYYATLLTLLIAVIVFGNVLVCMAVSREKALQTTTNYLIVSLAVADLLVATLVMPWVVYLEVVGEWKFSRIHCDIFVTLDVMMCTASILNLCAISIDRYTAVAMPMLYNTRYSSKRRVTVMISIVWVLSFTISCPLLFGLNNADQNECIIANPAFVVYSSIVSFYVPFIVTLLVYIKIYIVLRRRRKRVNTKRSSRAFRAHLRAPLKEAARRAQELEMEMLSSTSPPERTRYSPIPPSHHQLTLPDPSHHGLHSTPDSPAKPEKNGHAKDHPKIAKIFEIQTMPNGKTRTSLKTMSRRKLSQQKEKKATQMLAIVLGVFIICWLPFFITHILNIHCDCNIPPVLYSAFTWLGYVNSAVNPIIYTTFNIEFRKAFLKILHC
T5 sequence (P07550 whole entry): as the sequence (P07550 whole entry) above

On to `N[C@@H](COCCCSCCNC[C@H](O)c1ccc(O)c2[nH]c(=O)sc12)c1ccccc1` [Example 24, 7-((1R)-2-{[2-({3-[(2R)-2-Amino-2-phenylethoxy]propyl}thio)ethyl]amino}-1-hydroxyethyl)-4-hydroxy-1,3-benzothiazol-2(3H)-one], for which the EC50 at Adrenergic β2 is 0.398 nM. The “β2 Int Act” value on Adrenergic β2 was 0.8. The IC50 was 158 nM in assay [1], 79.4 nM in assay [2] (setting [4]) and 631 nM in assay [3].
`C[C@@H](CNCCSCCCNC[C@H](O)c1ccc(O)c2[nH]c(=O)sc12)c1ccccc1` [Example 27, 4-Hydroxy-7-[(1R)-1-hydroxy-2-({3-[(2-{[(2R)-2-phenylpropyl]amino}ethyl)thio]propyl}amino)ethyl]-1,3-benzothiazol-2(3H)-one]: the EC50 on Adrenergic β2 is 1 nM. Besides, on Adrenergic β2, the “β2 Int Act” value worked out at 1. Also, the IC50 in assay [1] was 126 nM; in assay [2] (setting [4]), 63.1 nM; in assay [3], 1000 nM.
On to `Cl.O=c1[nH]c2c(O)ccc([C@@H](O)CNCCCSCCCOCCc3ccc(Br)cc3)c2s1` [Example 5, 7-((1R)-2-{[3-({3-[2-(4-Bromophenyl)ethoxy]propyl}thio)propyl]amino}-1-hydroxyethyl)-4-hydroxy-1,3-benzothiazol-2(3-H)-one hydrochloride], for which, on β2 receptor (cAMP, test compounds incubated 10 minutes, 300 μM rolipram), the EC50 is 0.0631 nM. In addition, the “Intrinsic Activity” value on β2 receptor (fraction relative to the maximum activity determined for formoterol, 10 minutes incubation) is recorded as 0.7. On Adrenergic β2, the EC50 is 0.0501 nM and the “β2 Int Act” value amounted to 0.9.
For `O=c1[nH]c2c(O)ccc([C@@H](O)CNCCCSCCNCCc3ccccc3Cl)c2s1` [Example 31, 7-[(1R)-2-({3-[(2-{[2-(2-Chlorophenyl)ethyl]amino}ethyl)thio]propyl}amino)-1-hydroxyethyl]-4-hydroxy-1,3-benzothiazol-2(3H)-one], the EC50 on Adrenergic β2 was 0.398 nM. Further, the “β2 Int Act” value on Adrenergic β2 was found to be 0.8. For the same compound, the IC50 in assay [1] was 12.6 nM; in assay [2] (setting [4]), 39.8 nM; in assay [3], 1580 nM.
In the case of `O=c1[nH]c2c(O)ccc([C@@H](O)CNCCS(=O)(=O)CCCNCCc3cccc(Cl)c3)c2s1` [Example 42, 7-[(1R)-2-({2-[(3-{[2-(3-Chlorophenyl)ethyl]amino}propyl)sulfonyl]ethyl}amino)-1-hydroxyethyl]-4-hydroxy-1,3-benzothiazol-2(3H)-one dihydrochloride], at Adrenergic β2, the “β2 Int Act” value was 1. In addition, the IC50 in assay [1] is 126 nM; in assay [2] it was 794 nM; in assay [3] it was 10000 nM.
